According to article PMC11048566, “The Development of a Regulator of Human Serine Racemase for N-Methyl-D-aspartate Function” (Biomedicines, 2024):
Values belong to the compound of their own block, whether it stands above or below them.

Key:
SR [1] = assay: D-serine and L-serine levels in cerebral cortex and plasma after IV DMM (LC-MS/MS); type: in vivo, C57BL/6J male mice; settings: 400 mg/kg DMM IV, 30 min after administration, vs vehicle, n = 3
Procedure: For the determination of DAA concentration, C57BL/6J male mice received 50, 100, 200, and 400 mg/kg DMM (TGI, Tokyo, Japan) IV, and the mice were euthanized 30 min later. Cerebral cortex and plasma samples (n = 3 − 9) were collected and stored at −80 °C until the time of analysis. The brain tissues were weighed and homogenized on ice with 5-fold volumes of 1000 ng/mL tolbutamide (internal standard, IS, Sigma-Aldrich, St. Louis, MO, USA)) in methanol (Merck KGaA, Darmstadt, Germany). The plasma was combined with 4-fold volumes of 1250 ng/mL IS in methanol and vortexed for 2 min. The homogenates were centrifuged at 12,000× g […] for 10 min at 4 °C in an Eppendorf 5417R centrifuge (Eppendorf, Hamburg, Germany). The supernatant was passed through a 0.22 μm filter (Merck KGaA, Darmstadt, Germany) and analyzed by liquid chromatography–tandem mass spectrometry (LC-MS/MS) using the following method: An Agilent 1260 LC quaternary pump with an Agilent 1260 LC infinity autosampler and an Agilent 1100 column oven (Marshall Scientific, Hampton, NH, USA) were used to inject the samples onto an Astec Chirobiotic column (5 μm, 250 × 4.6 mm I.D., Sigma-Aldrich, St. Louis, MO, USA). The mobile phase was a 20/80 mixture of mobile phase A (0.1% formic acid (Sigma-Aldrich, St. Louis, MO, USA) in ddH2O) and mobile phase B (0.1% formic acid in acetonitrile), and the run was isocratic at a flow rate of 0.3 mL/min. Quantitation was achieved by MS/MS detection in positive ion multiple reaction monitoring (MRM) mode for analyte and IS using an AB SCIEX 3200 triple quadrupole ion trap mass spectrometer (AB Sciex, Framingham, MA, USA). The parameters for curtain gas, ion spray voltage, temperature, ion source gas 1, and ion source gas 2 were 10 psi, 5000 V, 550 °C, 35 psi, and 30 psi, respectively. AB SCIEX Analyst® (version 1.6.3, AB Sciex, Framingham, MA, USA) software was used for system control and data processing. To investigate the regulation of racemization by hSR, we applied DMM, the pro-drug of malonate, to C57BL/6J male mice. The mice were euthanized 30 min after the administration. The cerebral cortex and plasma were harvested and analyzed by LC-MS/MS to quantify D-serine and L-serine levels after the treatment with DMM (Figure 1). […] L-serine levels were also raised in the cerebral cortex 1.44 times (p < 0.001; n = 3; Student’s t-test) and in plasma 1.55 times (p < 0.05; n = 3; Student’s t-test).

[2] = biological target: T1, human serine racemase (hSR) (Homo sapiens, UniProt Q9GZT4); assay: Two-step enzymatic assay of hSR racemization (hSR, then DAAO/HRP/Amplex Red); type: biochemical; settings: within the physiological range of ATP concentration
T1 construct: 6xHis (C); made in house; host or cells: E. coli BL21 (pET42b-hSR)
T1 sequence (Q9GZT4 1-340): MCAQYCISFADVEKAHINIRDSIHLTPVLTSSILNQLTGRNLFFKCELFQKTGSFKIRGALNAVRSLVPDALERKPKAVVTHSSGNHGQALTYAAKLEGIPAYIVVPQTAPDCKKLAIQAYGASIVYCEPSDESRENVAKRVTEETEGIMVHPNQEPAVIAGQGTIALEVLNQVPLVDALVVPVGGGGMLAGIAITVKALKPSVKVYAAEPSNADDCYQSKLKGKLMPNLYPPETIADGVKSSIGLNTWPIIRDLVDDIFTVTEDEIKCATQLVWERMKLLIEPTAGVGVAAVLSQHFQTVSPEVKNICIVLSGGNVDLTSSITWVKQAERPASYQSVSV
Procedure: This assay was designed by the formation of D-serine by hSR and the oxidation of D-serine by D-amino acid oxidase (DAAO) and horseradish peroxidase (HRP) with the peroxidase substrate Amplex Red^TM (10-acetyl-3,7-dihydroxyphenoxazine) (Thermo Fisher Scientific, Lagoas Park, Porto Salvo, Portugal). The hSR activity assay reaction was carried out in 100 mM HEPES buffer, pH 8.0, containing 2.4 µg of hSR protein, 50 µM PLP, 1 mM MgCl2, 0.25 mM ATP, 400 mM L-serine, and 2 times serially diluted α12G (8 mM to 0.2 µM). Compound-free wells were used as blank controls in the assay. All reactions were performed in duplicates. The reaction mixtures were incubated at 37 °C for 4 h. The reaction was stopped by heating the reaction mixtures at 95 °C for 10 min and storage at 4 °C. A reaction mixture for the second-step enzymatic assay, DAAO assay, with a final volume of 100 µL was made with a 10 µL sample from hSR assay, 45 µM FAD, 10 units of HRP, 60 ng DAAO, 10 mM lead acetate, 10 mM Amplex Red^TM, and 100 mM Tris HCl (pH = 8.5). Lead acetate was used to conjugate α12G as the latter would inhibit the DAAO function in the fluorometric assay, leading to an […] of the effects of α12G on hSR. The fluorescence was detected by the TECAN Infinite 200 Microplate Reader (GMI, MN, USA). The racemization percentage was calculated as follows: racemization % = (Fsample, 20 min − Fsample, 0 min)/(Fblank, 20 min − Fblank, 0 min) × 100%. […] The two-step enzymatic assay described in Section 2.3 was designed by the formation of D-serine by hSR and the consequent oxidation of D-serine by DAAO. The inhibition of DAAO, which also degrades D-serine, by α12G will lead to overestimating the effects of racemization by hSR. […] Therefore, lead acetate was applied to conjugate α12G for the determination of racemization. […] On the contrary, when the concentration of α12G is higher than 2 mM, the racemization activity of hSR is inhibited.

hSR = biological target: T2, hSR (Homo sapiens, UniProt Q9GZT4); parameters: method as in PMID 29899358; settings: 2 mM ATP, cited from earlier work
T2 construct: 6xHis (C); made in house; host or cells: E. coli BL21 (pET42b-hSR)
T2 sequence (Q9GZT4 1-340): T1 sequence (Q9GZT4 1-340)

[3] = biological target: D-amino acid oxidase (DAAO) (Homo sapiens, UniProt P14920); assay: DAAO enzymatic assay; type: biochemical
Procedure: A reaction mixture for the DAAO assay, with a final volume of 100 µL was made with 1 µL 2 times serially diluted α12G (4 µM to 7.8 nM), 45 µM FAD, 10 units of HRP, 60 ng DAAO, 10 mM Amplex Red^TM, 5 mM D-serine, and 100 mM Tris HCl (pH = 8.5). All reactions were performed in duplicates. The fluorescence was detected by a fluorometric meter (TECAN Infinite 200). The racemization percentage was calculated as follows: activity % = (Fsample, 20 min − Fsample, 0 min)/(Fblank, 20 min − Fblank, 0 min) × 100%.

SR [4] = settings: two-step enzymatic assay; read-out: IC50 of SR inhibition; cited from earlier work

SMILES: COC(=O)CC(=O)OC [DMM, dimethyl malonate]
D-serine level in plasma, raised (SR [1]): 1.75 times | D-serine level in the cerebral cortex, raised (SR [1]): 1.43 times | L-serine level in plasma, raised (SR [1]): 1.55 times | L-serine level in the cerebral cortex, raised (SR [1]): 1.44 times

ATP concentration that promotes the most racemization by hSR [2]: 0.25 mM
SMILES: Nc1ncnc2c1ncn2[C@@H]1O[C@H](COP(=O)(O)OP(=O)(O)OP(=O)(O)O)[C@@H](O)[C@H]1O [ATP]
Increase in enzyme activation, L-serine dehydration (kcat/KM 8.1 to 253 s^−1 M^−1) (hSR; 200 mM L-serine, 37 °C): 31 fold | Enhancement of D-serine dehydration (kcat/KM 0.6 to 2.4 s^−1 M^−1) (hSR): 4 fold | Enhancement of L-serine racemization (kcat/KM 9.2 to 17.5 s^−1 M^−1) (hSR): 1.9 fold

Effect on DAAO [3]: has an inhibitory effect on DAAO
SMILES: Nc1ccccc1N1CCOCC1 [x-0458, 2-morpholinoaniline, reference compound]
IC50 (SR [4]): 10.6 µM
